Experimental data: patent US10030006B2, “Coumarin based Hsp90 inhibitors with urea and ether substituents” (University of Kansas, priority 2013, dated 2018)
Like-named read-outs stand apart in the source and are kept apart here.

Experiments:
Assay type in all cases: cell-based
[1] = tested on: JMAR; assay: Anti-proliferation assay, JMAR; settings: JMAR, HSNCC
Procedure, shortened: (§1)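 Seeding density 2000 cells/well; 72 h treatment at varying concentrations, DMSO held at 1%. Viability determined by MTS/PMS kit, with vehicle-treated cells defining full proliferation, and IC50 calculated across separate triplicate experiments.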

[2] = tested on: MCF-7 (estrogen receptor positive breast cancer cells); assay: Anti-proliferation assay (MTS/PMS, 72 h), MCF-7; settings: Homo sapiens, MCF7, Breast Cancer, read-out: IC50 MCF-3
[3] = tested on: BCPAP; assay: Anti-proliferation assay, BCPAP; settings: Homo sapiens, BCPAP, Thyroid
Protocol: Cells were maintained in a 1:1 mixture of Advanced DMEM/F12 (Gibco) supplemented with non-essential amino acids, L-glutamine (2 mM), streptomycin (500 μg/mL), penicillin (100 units/mL), and 10% FBS. Cells were grown to confluence in a humidified atmosphere (37° C., 5% CO2), seeded (2000/well, 100 μL) in 96-well plates, and allowed to attach overnight. Compound at varying concentrations in DMSO (1% DMSO final concentration) was added, and cells were returned to the incubator for 72 h. At 72 h, the number of viable cells was determined using an MTS/PMS cell proliferation kit (Promega) per the manufacturer's instructions. Cells incubated in 1% DMSO were used at 100% proliferation, and values were adjusted accordingly. IC50 values were calculated from separate experiments performed in triplicate using GraphPad Prism.

[4] = tested on: PC-3; assay: Anti-proliferation assay, PC-3; settings: Homo sapiens, PC-3, Prostate Cancer
Procedure, shortened: as §1

[5] = tested on: A-549; assay: Anti-proliferation assay, A-549; settings: Homo sapiens, A549
Procedure, shortened: as §1

[6] = tested on: SKBr3 (estrogen receptor negative, Her2 over-expressing breast cancer cells); assay: Anti-proliferation assay (MTS/PMS, 72 h), SKBr3; settings: Homo sapiens, SK-BR-3, Breast Cancer, read-out: IC50 SKBr3
[7] = tested on: MRC5; assay: Anti-proliferation assay, MRC5 (normal); settings: Homo sapiens
Procedure, shortened: as §1

[8] = tested on: HCT-116; assay: Anti-proliferation assay, HCT-116; settings: Homo sapiens, HCT-116
Procedure, shortened: as §1

[9] = tested on: MDA1986; assay: Anti-proliferation assay, MDA1986; settings: MDA1986, HSNCC
Procedure, shortened: as §1

[10] = tested on: HMLE; assay: Anti-proliferation assay, HMLE (normal); settings: HMLE
Procedure, shortened: as §1

[11] = tested on: DRO81-1; assay: Anti-proliferation assay, DRO81-1; settings: Thyroid
Procedure, shortened: as §1

[12] = tested on: MDAMB231; assay: Anti-proliferation assay, MDAMB231; settings: Homo sapiens, MDA-MB-231, Tri-Neg
Procedure, shortened: as §1

[13] = Table 6, substituted phenyl ureas
[14] = MRC5, Table 6, substituted phenyl ureas

SMILES	IC50 [1, 13]	IC50 [2, 13]	IC50 [3, 13]	IC50 [4, 13]	IC50 [5, 13]	IC50 [6, 13]	IC50 [7, 14]	IC50 [8, 13]	IC50 [9, 13]	IC50 [10, 13]	IC50 [11, 13]	IC50 [12, 13]	also measured
COc1ccc(NC(=O)Nc2cc3ccc(OC4CCN(C)CC4)c(C)c3oc2=O)cc1-c1cccc(O)c1 [OMe, OH, 1-(3′-hydroxy-6-methoxy-[1,1′-biphenyl]-3-yl)-3-(8-methyl-7-((1-methylpiperidin-4-yl)oxy)-2-oxo-2H-chromen-3-yl)urea]													IC50 ([1]; Table 8, biphenyl ureas): 0.96 µM; IC50 ([2]; Table 8, biphenyl ureas): 0.29 µM; IC50 ([3]; Table 8, biphenyl ureas): 1.94 µM; IC50 ([4]; Table 8, biphenyl ureas): 0.6 µM; IC50 ([5]; Table 8, biphenyl ureas): 0.41 µM; IC50 ([6]; Table 8, biphenyl ureas): 0.39 µM; IC50 ([7]; MRC5, Table 8, biphenyl ureas): 9.8 µM; IC50 ([8]; Table 8, biphenyl ureas): 0.42 µM; IC50 ([9]; Table 8, biphenyl ureas): 2.8 µM; IC50 ([10]; Table 8, biphenyl ureas): 3.7 µM; IC50 ([11]; Table 8, biphenyl ureas): 1.2 µM; IC50 ([12]; Table 8, biphenyl ureas): 0.095 µM
COc1cccc(-c2cc(NC(=O)Nc3cc4ccc(OC5CCN(C)CC5)c(C)c4oc3=O)ccc2OC)c1 [OMe, OMe, 1-(3′,6-dimethoxy-[1,1′-biphenyl]-3-yl)-3-(8-methyl-7-((1-methylpiperidin-4-yl)oxy)-2-oxo-2H-chromen-3-yl)urea]													IC50 ([1]; Table 8, biphenyl ureas): 0.5 µM; IC50 ([2]; Table 8, biphenyl ureas): 0.2 µM; IC50 ([3]; Table 8, biphenyl ureas): 0.39 µM; IC50 ([4]; Table 8, biphenyl ureas): 0.47 µM; IC50 ([5]; Table 8, biphenyl ureas): 0.47 µM; IC50 ([6]; Table 8, biphenyl ureas): 0.17 µM; IC50 ([7]; MRC5, Table 8, biphenyl ureas): 4.3 µM; IC50 ([8]; Table 8, biphenyl ureas): 0.46 µM; IC50 ([9]; Table 8, biphenyl ureas): 1.39 µM; IC50 ([10]; Table 8, biphenyl ureas): 1.6 µM; IC50 ([11]; Table 8, biphenyl ureas): 0.48 µM; IC50 ([12]; Table 8, biphenyl ureas): 0.61 µM
CCc1cccc(NC(=O)Nc2cc3ccc(OC4CCN(C)CC4)c(C)c3oc2=O)c1 [m-CH2CH3, 1-(3-ethylphenyl)-3-(8-methyl-7-((1-methylpiperidin-4-yl)oxy)-2-oxo-2H-chromen-3-yl)urea]	0.63 µM	0.5 µM	5.59 µM	0.41 µM	0.4 µM	0.44 µM	5.3 µM	0.34 µM	1.32 µM	> 25 µM	0.67 µM	1.9 µM	
Cc1cccc(NC(=O)Nc2cc3ccc(OC4CCN(C)CC4)c(C)c3oc2=O)c1 [m-CH3, 1-(8-methyl-7-((1-methylpiperidin-4-yl)oxy)-2-oxo-2H-chromen-3-yl)-3-(m-tolyl)urea]	1.8 µM	0.55 µM	3.54 µM	0.84 µM	1.21 µM	0.84 µM	4.3 µM	1.11 µM	2.02 µM	3.1 µM	0.54 µM	3.5 µM	
CC(=O)c1cccc(NC(=O)Nc2cc3ccc(OC4CCN(C)CC4)c(C)c3oc2=O)c1 [m-COCH3, 1-(3-acetylphenyl)-3-(8-methyl-7-((1-methylpiperidin-4-yl)oxy)-2-oxo-2H-chromen-3-yl)urea]	15.7 µM	1.17 µM	0.27 µM	1.23 µM	0.54 µM	0.83 µM	> 25 µM	0.72 µM	21 µM	1.9 µM	13.6 µM	0.61 µM	
CC(=O)Oc1cccc(NC(=O)Nc2cc3ccc(OC4CCN(C)CC4)c(C)c3oc2=O)c1 [m-OAc, 3-(3-(8-methyl-7-((1-methylpiperidin-4-yl)oxy)-2-oxo-2H-chromen-3-yl)ureido)phenyl acetate]	3.85 µM	1.41 µM	2.82 µM	1.91 µM	1.91 µM	2.37 µM	> 25 µM	12.1 µM	6.82 µM	13.6 µM	2.7 µM	4.1 µM	
Cc1c(OC2CCN(C)CC2)ccc2cc(NC(=O)Nc3cccc(O)c3)c(=O)oc12 [m-OH, 1-(3-hydroxyphenyl)-3-(8-methyl-7-((1-methylpiperidin-4-yl)oxy)-2-oxo-2H-chromen-3-yl)urea]	6.5 µM	2.73 µM	0.27 µM	10.9 µM	10.9 µM	2.37 µM	> 25 µM	> 100 µM	21.9 µM	11.9 µM	> 25 µM	1.3 µM	
CCc1ccc(NC(=O)Nc2cc3ccc(OC4CCN(C)CC4)c(C)c3oc2=O)cc1 [p-CH2CH3, 1-(4-ethylphenyl)-3-(8-methyl-7-((1-methylpiperidin-4-yl)oxy)-2-oxo-2H-chromen-3-yl)urea]	1.03 µM	0.56 µM	4.36 µM	0.41 µM	0.49 µM	0.58 µM	2.6 µM	0.53 µM	1.4 µM	1.2 µM	0.29 µM	0.69 µM	
Cc1c(OC2CCN(C)CC2)ccc2cc(NC(=O)Nc3ccc(N(C)C)cc3)c(=O)oc12 [p-N-dimethylamine, 1-(4-(dimethylamino)phenyl)-3-(8-methyl-7-((1-methylpiperidin-4-yl)oxy)-2-oxo-2H-chromen-3-yl)urea]	0.77 µM	1 µM	0.74 µM	7.96 µM	2.7 µM	1.11 µM	14.4 µM	9.34 µM	17.5 µM	0.96 µM	> 25 µM	1.4 µM	
CC(=O)Oc1ccc(NC(=O)Nc2cc3ccc(OC4CCN(C)CC4)c(C)c3oc2=O)cc1 [p-OAc, 4-(3-(8-methyl-7-((1-methylpiperidin-4-yl)oxy)-2-oxo-2H-chromen-3-yl)ureido)phenyl acetate]	3.5 µM	1.72 µM	5.53 µM	1.15 µM	1.51 µM	1.48 µM	15.5 µM	2.61 µM	1.98 µM	15.9 µM	3.7 µM	0.85 µM	
Cc1c(OC2CCN(C)CC2)ccc2cc(NC(=O)Nc3ccc(OC(F)(F)F)cc3)c(=O)oc12 [p-OCF3, 1-(8-methyl-7-((1-methylpiperidin-4-yl)oxy)-2-oxo-2H-chromen-3-yl)-3-(4-(trifluoromethoxy)phenyl)urea]	3.6 µM	0.4 µM	0.87 µM	0.16 µM	0.31 µM	0.41 µM	3.3 µM	0.27 µM	0.87 µM	4.1 µM	0.23 µM	0.69 µM	
